Reference: patent publication US20220390435A1, “COMPOSITIONS FOR PATIENT SPECIFIC IMMUNOTHERAPY” (VITROSCAN B.V., priority 2019, published 2022)

Experiments:
Format in all cases: cell-based, human
[1] = test system: ovarian cancer tumoroids; experiment: ex vivo 3D patient-derived tumour culture with 3D imaging, ovarian cancer samples; details: for area size of small objects (smaller than 160 μm^2, immune cells): same ovarian tumour sample as FIG. 4, FIG. 5
[2] = test system: patient derived tumour cell aggregates; experiment: Selection Factor (tumoroids' area decrease) across patient samples; details: for immune reaction reducing the number of tumour cells (Selection Factor across samples): FIGS. 8 and 9, alone or in combination, immune system of a naïve patient sample only
[3] = test system: lung tumour sample; experiment: ex vivo 3D patient-derived tumour culture with 3D imaging, lung tumour sample; details: FIG. 6
[4] = test system: Mesothelioma tumour sample; experiment: ex vivo 3D patient-derived tumour culture with 3D imaging, mesothelioma sample; details: FIG. 3
[5] = test system: IFN-γ; experiment: IFN-γ production in treated patient-derived cultures; details: FIG. 7; IFN-γ is secreted by activated T-cells

Row | Compound | area size of small objects (smaller than 160 μm^2, immune cells) [1] | immune reaction reducing the number of tumour cells (Selection Factor across samples) [2] | killing effect in a lung cancer tumour sample [3] | further results
1 | Nc1ncnc2c1ncn2[C@@H]1O[C@@H]2COP(=O)([S-])O[C@@H]3[C@H](O)[C@@H](COP([O-])(=S)O[C@H]2[C@H]1O)O[C@H]3n1cnc2c(N)ncnc21.[Na+].[Na+] (stereo partly shown) [ADU-S100] | area size increase of small objects | – | – | –
2 | O=C(c1cc(Cc2n[nH]c(=O)c3ccccc23)ccc1F)N1CCN(C(=O)C2CC2)CC1 [olaparib] | – | able to start an immune reaction that effectively reduced the number of tumour cells | – | –
3 | ipilimumab | – | able to start an immune reaction that effectively reduced the number of tumour cells | killing effect in a lung cancer tumour sample | immune-mediated tumoroid killing effect [4]: showing immune-mediated tumoroid killing effect; in-vitro Selection Factor ([2]; subset of patients that benefit from treatment): below −30%; IFN-γ production [5]: increased; activating native immune cells to kill ovarian cancer tumoroids (total area of objects larger than 422 μm^2 / smaller than 160 μm^2) ([1]; ovarian cancer samples of FIG. 1): showed effectiveness in activating immune cells; activating native immune cells to kill tumoroids ([1]; ovarian cancer samples of FIG. 2): does not show effectiveness
4 | nivolumab | – | – | killing effect in a lung cancer tumour sample | –
5 | pembrolizumab | area size increase of small objects | – | killing effect in a lung cancer tumour sample | killing effect, i.e. area size reduction of tumoroid clusters ([1]; ovarian tumour sample, FIG. 4): killing effect, i.e. area size reduction of tumoroid clusters
